Results as given in EP0490818B1, “6-CYCLOHEXYL-2'-0-METHYL-ADENOSINE HYDRATE AND USES THEREOF” (Novartis AG, priority 1990, dated 1992).
Like-named read-outs stand apart in the source and are kept apart here.

Legend:
A1 receptor [1] = target: T1, A1 receptor (Sus scrofa, UniProt I3LEN5); experiment: biochemical
T1 sequence (I3LEN5 1-326): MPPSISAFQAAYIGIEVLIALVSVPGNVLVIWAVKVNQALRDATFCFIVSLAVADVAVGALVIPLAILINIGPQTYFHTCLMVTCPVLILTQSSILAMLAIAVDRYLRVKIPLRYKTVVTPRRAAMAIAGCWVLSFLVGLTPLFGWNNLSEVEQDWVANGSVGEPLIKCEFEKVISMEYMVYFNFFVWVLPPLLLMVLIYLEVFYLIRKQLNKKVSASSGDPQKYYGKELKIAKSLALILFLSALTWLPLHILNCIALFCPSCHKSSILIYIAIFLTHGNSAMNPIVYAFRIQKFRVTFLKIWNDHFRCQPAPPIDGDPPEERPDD
Method: (§1) Pig striatal membranes were prepared as previously described by H. Bruns et al. in Molecular Pharmacology 29 (1986) pages 331-344. ^3H-NECA, a non-selective adenosine receptor agonist was used to label both A1 and A2 receptors. IC50 values were derived from the displacement curves by weighted non-linear least-square curve fitting to the Langmuir equation and pKD values calculated.

A2 receptor = target: T2, A2 receptor (Sus scrofa, UniProt K9IW67); experiment: Affinity for adenosine receptors, displacement of 3H-NECA binding in striatal membranes (A2); set-up: species or system Pig
T2 construct: Pig striatal membranes were prepared as previously described; from tissue; host or cells: pig striatum (membranes)
T2 sequence (K9IW67 1-409): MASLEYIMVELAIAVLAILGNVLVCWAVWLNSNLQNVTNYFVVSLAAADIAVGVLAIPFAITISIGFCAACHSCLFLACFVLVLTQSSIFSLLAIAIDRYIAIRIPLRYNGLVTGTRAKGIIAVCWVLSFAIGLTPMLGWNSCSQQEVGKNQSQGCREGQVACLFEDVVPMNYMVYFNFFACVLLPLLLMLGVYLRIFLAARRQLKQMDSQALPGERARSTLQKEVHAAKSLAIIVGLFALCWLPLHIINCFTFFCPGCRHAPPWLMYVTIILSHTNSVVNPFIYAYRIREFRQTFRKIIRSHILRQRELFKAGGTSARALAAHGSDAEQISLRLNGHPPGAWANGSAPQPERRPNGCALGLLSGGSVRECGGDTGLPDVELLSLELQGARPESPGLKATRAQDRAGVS
Method: as §1

A1 receptor [2] = settings: ratio of A2 KD to A1 KD, pig striatal membranes
Method: as §1

[3] = Plasma free fatty acids and triglycerides in the monkey (dyslipidemias with elevated serum triglycerides); assay type: in vivo; settings: Rhesus monkey
From the text: Several studies have shown a positive correlation between serum triglyceride levels and the risk for coronary heart disease (CHD) (Grundy, in Cholesterol and Atherosclerosis: Diagnosis and Treatment, Lippincott, Philadelphia (1990)). The value of reducing elevated triglyceride levels as an approach to reducing the risk of CHD emerged from the Helsinki Heart Study where, following treatment with gemfibrozil, the greatest reduction in serious coronary events occured in Type IIB hyperlipidemic patients in whom both LDL-cholesterol and total serum triglycerides were elevated.

Kd (A2 receptor; Pig striatal membranes, 3H-NECA label, mean ± spread, read-out: A2 (KD;nM)) [nM] | Structure (SMILES) | Kd (A1 receptor [1]) [µM] | A1:A2 selectivity (A1 receptor [2]) | Kd (A2 receptor) [nM] | plasma free fatty acids [3] | plasma triglycerides [3]
 | CCNC(=O)[C@H]1O[C@@H](n2cnc3c(N)nc(NCCc4ccc(CCC(=O)O)cc4)nc32)[C@H](O)[C@@H]1O [CGS 21680, 2-[p-(2-Carboxyethyl)phenethylamino]-5'-N-ethyl carboxamido-adenosine] | 4.36 ± 1.08 |  |  |  | 
269 ± 70 | Nc1nc(Nc2ccccc2)nc2c1ncn2[C@@H]1O[C@H](CO)[C@@H](O)[C@H]1O [CV 1808, 2-Phenylaminoadenosine, reference compound] | 2.46 ± 0.757 | 0.1 |  |  | 
 | CO[C@@H]1[C@H](O)[C@@H](CO)O[C@H]1n1cnc2c(NC3CCCCC3)ncnc21 [Compound No. 7 1.5 H2O, 6-cyclohexyl-2'-O-methyl-adenosine 1.5 hydrate] | 0.023 ± 0.002 | 1090 | 24500 ± 5160 | substantial and long-lasting falls | substantial and long-lasting falls
